According to PMC11831560, “Development of the Pyrido[2,3-d]pyrimidin-7(8H)-one Scaffold toward Potent and Selective NUAK1 Inhibitors” (ACS Medicinal Chemistry Letters, 2025):
Several values for one entry are separate records, joined by “and”; a condition that tells them apart may be missing. Identical values can stand only once.

Assays:
Assay in all cases: Kinase panel radiometric filter binding (33P-ATP)
Assay type in all cases: biochemical
Set-up in all cases: % activity remaining: dose or concentration left out as unconfirmed
IGF-1R = IGF-1R (Homo sapiens, UniProt P08069); conditions: for % activity remaining: IGF-1R
Procedure: (§1) Table S4: AMPKA kinase activity data (ADP-Glo assay)
(§2) Compound pIC50 (Fold selectivity
(§3) Table S5. Kinase selectivity screening for 9 and 24 at 1 µM against a general kinase panel of 140 targets
(§4) in radiometric filter binding assay using 33P-γ−ATP at the MRC PPU International Centre for Kinase
(§5) Profiling, University of Dundee. pIC50 values were determined for compounds with <20% activity
(§6) Kinase activity s.d. pIC50 activity s.d. pIC50

YES1 = YES1 (Homo sapiens, UniProt P07947); conditions: for % activity remaining: YES1
Procedure: as §1, §2, §3, §4, §5, §6

VEG-FR = target: T1, VEG-FR (Homo sapiens, UniProt P17948); conditions: for % activity remaining: VEG-FR
T1 sequence (P17948 784-1338 limits assumed): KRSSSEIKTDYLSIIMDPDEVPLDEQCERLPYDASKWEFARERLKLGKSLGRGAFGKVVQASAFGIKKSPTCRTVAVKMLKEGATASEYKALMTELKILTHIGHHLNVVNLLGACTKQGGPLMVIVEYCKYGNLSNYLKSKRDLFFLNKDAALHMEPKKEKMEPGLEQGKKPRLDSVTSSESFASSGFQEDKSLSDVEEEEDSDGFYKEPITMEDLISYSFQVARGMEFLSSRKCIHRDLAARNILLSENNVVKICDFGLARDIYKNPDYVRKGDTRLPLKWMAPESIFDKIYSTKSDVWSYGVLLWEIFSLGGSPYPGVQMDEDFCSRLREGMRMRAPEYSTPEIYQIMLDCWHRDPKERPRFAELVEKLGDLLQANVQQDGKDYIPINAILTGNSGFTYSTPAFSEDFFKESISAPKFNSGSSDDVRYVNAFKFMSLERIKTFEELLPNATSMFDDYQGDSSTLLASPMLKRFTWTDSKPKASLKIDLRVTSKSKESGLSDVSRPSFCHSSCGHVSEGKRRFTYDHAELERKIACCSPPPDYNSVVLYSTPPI
Procedure: as §1, §2, §3, §4, §5, §6

MELK = MELK (Homo sapiens, UniProt Q14680); conditions: for % activity remaining: MELK
Procedure: as §1, §2, §3, §4, §5, §6

MARK2 = target: T2, MARK2 (Homo sapiens, UniProt Q7KZI7); conditions: for % activity remaining: MARK2
T2 construct: purchased MRC PPU
Procedure: as §1, §2, §3, §4, §5, §6

MAP4K5 = MAP4K5 (Homo sapiens, UniProt Q9Y4K4); conditions: for % activity remaining: MAP4K5
Procedure: as §1, §2, §3, §4, §5, §6

JAK3 = target: T3, JAK3 (Homo sapiens, UniProt P52333); conditions: for % activity remaining: JAK3
T3 sequence (P52333 1-1124): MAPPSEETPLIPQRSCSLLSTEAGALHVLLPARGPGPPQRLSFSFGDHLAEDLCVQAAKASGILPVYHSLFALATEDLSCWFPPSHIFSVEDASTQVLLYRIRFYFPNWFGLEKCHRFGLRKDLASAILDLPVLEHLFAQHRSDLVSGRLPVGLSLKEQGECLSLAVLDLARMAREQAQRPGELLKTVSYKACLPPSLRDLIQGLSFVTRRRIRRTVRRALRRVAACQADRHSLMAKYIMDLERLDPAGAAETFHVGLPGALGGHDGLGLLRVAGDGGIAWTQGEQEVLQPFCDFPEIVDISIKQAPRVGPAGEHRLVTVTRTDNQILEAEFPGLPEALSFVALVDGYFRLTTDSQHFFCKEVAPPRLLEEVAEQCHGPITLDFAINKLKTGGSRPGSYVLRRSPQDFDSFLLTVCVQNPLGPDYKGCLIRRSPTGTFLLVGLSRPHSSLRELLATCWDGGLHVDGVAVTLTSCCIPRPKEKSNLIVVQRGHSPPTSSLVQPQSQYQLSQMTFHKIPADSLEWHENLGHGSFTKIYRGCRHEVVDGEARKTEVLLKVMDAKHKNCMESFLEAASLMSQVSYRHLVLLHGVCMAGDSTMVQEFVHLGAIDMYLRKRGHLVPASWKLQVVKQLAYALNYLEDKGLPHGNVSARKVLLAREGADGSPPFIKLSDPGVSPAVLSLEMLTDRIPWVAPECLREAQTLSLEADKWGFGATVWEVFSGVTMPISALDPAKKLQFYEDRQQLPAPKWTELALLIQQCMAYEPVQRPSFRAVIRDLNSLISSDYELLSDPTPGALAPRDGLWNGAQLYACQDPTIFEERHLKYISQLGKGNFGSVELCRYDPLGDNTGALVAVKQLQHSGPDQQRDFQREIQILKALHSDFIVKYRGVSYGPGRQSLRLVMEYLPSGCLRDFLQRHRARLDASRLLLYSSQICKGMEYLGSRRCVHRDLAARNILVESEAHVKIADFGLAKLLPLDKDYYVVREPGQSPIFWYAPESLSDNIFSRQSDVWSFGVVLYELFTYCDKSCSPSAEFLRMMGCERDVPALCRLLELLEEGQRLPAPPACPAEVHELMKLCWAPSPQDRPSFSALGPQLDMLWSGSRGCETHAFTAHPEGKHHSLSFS
Procedure: as §1, §2, §3, §4, §5, §6

MST3 = MST3 (Homo sapiens, UniProt Q9Y6E0); conditions: for % activity remaining: MST3
Procedure: as §1, §2, §3, §4, §5, §6

SIK2 = SIK2 (Homo sapiens, UniProt Q9H0K1); conditions: for % activity remaining: SIK2
Procedure: as §1, §2, §3, §4, §5, §6

MARK1 = target: T4, MARK1 (Homo sapiens, UniProt Q9P0L2); conditions: for % activity remaining: MARK1
T4 construct: purchased MRC PPU
Procedure: as §1, §2, §3, §4, §5, §6

[1] = radiometric filter binding panel

Chain of MST3 (Q9Y6E0 whole entry, species assumed): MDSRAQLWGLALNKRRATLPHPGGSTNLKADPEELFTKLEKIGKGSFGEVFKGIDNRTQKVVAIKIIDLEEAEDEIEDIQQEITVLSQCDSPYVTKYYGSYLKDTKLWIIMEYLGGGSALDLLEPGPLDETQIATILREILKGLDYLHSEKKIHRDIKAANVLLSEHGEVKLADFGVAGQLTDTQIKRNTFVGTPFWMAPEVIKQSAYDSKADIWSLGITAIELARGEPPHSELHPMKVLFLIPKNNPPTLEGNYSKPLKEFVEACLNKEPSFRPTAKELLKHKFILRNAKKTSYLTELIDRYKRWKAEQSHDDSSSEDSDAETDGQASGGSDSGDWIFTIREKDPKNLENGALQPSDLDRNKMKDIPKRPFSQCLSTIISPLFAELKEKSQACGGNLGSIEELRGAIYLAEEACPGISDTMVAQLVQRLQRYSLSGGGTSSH
Chain of IGF-1R (P08069 31-1367, species assumed): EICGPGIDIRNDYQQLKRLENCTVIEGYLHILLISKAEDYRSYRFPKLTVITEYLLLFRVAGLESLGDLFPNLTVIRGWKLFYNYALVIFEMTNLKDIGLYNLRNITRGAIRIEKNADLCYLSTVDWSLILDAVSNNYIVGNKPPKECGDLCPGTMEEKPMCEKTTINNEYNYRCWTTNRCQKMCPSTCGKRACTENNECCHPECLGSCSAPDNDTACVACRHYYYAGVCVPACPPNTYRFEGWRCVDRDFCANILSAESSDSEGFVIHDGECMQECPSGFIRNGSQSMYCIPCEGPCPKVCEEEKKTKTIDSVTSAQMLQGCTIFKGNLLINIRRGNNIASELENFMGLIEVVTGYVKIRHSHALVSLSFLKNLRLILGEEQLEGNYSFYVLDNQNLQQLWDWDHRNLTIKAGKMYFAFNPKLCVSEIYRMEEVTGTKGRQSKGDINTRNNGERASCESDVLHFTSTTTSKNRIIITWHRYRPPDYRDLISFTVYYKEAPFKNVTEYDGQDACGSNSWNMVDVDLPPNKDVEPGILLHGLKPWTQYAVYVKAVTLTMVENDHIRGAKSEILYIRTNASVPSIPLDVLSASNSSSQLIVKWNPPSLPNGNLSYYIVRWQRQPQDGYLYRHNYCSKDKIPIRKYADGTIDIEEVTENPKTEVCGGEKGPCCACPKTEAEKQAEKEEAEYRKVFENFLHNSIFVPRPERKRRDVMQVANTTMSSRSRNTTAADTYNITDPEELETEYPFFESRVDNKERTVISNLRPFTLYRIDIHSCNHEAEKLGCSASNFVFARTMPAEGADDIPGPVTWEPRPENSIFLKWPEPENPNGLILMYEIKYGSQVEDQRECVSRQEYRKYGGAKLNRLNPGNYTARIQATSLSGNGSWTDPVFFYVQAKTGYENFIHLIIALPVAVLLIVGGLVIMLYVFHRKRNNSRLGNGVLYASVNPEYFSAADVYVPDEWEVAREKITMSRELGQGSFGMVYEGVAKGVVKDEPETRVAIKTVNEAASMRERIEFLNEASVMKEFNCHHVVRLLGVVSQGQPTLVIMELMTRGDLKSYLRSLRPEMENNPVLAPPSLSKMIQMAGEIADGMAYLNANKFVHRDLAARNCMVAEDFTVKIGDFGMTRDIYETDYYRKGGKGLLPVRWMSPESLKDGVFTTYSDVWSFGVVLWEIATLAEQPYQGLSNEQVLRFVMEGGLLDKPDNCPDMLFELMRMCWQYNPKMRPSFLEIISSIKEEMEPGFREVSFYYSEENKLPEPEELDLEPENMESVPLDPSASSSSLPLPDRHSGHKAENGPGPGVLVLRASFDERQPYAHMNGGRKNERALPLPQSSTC
T2 sequence (Q7KZI7 whole entry): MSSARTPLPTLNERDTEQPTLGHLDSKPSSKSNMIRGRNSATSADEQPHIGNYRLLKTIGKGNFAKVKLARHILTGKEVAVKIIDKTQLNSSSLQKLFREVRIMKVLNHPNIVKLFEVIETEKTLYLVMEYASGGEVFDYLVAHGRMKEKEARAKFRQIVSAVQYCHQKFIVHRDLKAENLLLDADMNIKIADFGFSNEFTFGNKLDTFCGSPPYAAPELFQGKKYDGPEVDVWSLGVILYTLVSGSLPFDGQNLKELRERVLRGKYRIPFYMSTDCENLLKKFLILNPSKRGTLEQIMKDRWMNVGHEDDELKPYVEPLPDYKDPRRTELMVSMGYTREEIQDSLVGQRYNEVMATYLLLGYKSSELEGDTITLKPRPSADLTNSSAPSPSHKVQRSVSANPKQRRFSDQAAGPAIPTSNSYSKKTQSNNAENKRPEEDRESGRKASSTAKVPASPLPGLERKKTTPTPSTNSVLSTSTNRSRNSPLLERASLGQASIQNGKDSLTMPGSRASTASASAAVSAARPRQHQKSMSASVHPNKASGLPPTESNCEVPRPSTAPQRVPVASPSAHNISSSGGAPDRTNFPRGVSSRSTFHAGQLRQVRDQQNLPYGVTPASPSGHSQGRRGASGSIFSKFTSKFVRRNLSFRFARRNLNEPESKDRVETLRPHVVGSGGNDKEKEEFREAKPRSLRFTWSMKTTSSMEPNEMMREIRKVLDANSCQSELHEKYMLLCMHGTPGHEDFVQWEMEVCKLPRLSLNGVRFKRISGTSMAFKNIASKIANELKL
Chain of MELK (Q14680 whole entry, species assumed): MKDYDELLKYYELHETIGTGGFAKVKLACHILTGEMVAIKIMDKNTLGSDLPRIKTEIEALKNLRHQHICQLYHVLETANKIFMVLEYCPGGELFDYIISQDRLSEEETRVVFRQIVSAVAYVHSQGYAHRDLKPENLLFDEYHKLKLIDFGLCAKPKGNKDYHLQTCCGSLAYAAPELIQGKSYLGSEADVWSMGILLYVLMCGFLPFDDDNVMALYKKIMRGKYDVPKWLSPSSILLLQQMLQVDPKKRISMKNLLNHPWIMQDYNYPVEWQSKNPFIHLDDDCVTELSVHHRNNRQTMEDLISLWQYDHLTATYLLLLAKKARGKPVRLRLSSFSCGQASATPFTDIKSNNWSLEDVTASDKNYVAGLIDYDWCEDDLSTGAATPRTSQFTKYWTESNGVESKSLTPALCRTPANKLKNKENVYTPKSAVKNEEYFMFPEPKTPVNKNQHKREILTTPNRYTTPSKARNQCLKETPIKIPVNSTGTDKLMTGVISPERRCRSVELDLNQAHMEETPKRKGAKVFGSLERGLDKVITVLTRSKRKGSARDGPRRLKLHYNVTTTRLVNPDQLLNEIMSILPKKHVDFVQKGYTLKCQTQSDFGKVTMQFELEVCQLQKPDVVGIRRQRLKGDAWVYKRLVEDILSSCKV
Chain of YES1 (P07947 whole entry, species assumed): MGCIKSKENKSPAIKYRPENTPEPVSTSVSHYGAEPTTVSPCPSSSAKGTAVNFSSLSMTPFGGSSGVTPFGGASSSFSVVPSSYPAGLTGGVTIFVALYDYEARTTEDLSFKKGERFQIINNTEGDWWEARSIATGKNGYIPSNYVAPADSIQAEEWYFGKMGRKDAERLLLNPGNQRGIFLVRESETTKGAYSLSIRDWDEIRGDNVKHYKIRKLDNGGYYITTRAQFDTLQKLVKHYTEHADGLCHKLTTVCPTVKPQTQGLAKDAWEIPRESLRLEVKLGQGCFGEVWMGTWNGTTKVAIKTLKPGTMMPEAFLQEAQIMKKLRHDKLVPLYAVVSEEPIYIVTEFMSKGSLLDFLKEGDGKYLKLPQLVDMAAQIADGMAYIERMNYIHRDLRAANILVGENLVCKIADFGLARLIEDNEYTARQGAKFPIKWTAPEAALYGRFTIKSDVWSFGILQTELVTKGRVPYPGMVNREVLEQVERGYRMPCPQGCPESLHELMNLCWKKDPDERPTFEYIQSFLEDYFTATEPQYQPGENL
T4 sequence (Q9P0L2 whole entry): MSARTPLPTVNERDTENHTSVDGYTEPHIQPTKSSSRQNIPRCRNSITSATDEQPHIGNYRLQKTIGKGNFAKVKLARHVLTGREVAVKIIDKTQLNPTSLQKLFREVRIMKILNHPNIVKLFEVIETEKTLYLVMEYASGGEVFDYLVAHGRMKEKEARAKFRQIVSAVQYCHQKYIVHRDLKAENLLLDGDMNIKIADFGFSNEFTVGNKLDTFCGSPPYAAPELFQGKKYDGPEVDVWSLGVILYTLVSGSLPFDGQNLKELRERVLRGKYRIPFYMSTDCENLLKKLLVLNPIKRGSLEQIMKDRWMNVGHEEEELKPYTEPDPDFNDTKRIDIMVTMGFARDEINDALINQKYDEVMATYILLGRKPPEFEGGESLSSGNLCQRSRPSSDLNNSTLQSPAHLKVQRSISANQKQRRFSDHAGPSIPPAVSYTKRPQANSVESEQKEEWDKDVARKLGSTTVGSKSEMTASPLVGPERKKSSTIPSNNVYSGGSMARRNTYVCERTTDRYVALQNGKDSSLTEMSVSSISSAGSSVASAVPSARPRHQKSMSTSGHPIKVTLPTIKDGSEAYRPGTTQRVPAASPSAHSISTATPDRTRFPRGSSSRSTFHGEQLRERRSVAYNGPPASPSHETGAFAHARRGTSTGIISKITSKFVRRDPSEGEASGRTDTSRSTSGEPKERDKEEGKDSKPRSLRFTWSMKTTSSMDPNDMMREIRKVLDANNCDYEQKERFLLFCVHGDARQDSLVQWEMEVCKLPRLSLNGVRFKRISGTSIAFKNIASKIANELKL

| SMILES | % activity remaining (IGF-1R) [%] | % activity remaining (YES1) [%] | % activity remaining (VEG-FR) [%] | % activity remaining (MELK) [%] | % activity remaining (MARK2) [%] | % activity remaining (MAP4K5) [%] | % activity remaining (JAK3) [%] | % activity remaining (MST3) [%] | % activity remaining (SIK2) [%] | % activity remaining (MARK1) [%] | also measured |
| --- | --- | --- | --- | --- | --- | --- | --- | --- | --- | --- | --- |
| Cc1cc(=O)n(C2CCCC2)c2nc(Nc3ccc(N4CC5CC(C4)N5C)cc3)ncc12 [Compound 9] | 18 | 13 | 71 | 6 | 98 | 14 | 22 | 17 | 44 | 56 | IC50 (IGF-1R; radiometric filter binding panel, read-out: IGF-1R pIC50 (converted)): 1050 nM; YES1 pIC50 (YES1; [1]): > 7; IC50 (YES1; radiometric filter binding panel, read-out: YES1 pIC50 (converted)): 75.9 nM; MELK pIC50 (MELK; [1]): > 7; IC50 (MELK; radiometric filter binding panel, read-out: MELK pIC50 (converted)): 53.7 nM; inhibition at 1 µM (MARK2; at 1 μM, radiometric filter binding assay, Dundee, read-out: MARK2 single point % inhibition): 2%; MAP4K5 pIC50 (MAP4K5; [1]): > 7; IC50 (MAP4K5; radiometric filter binding panel, read-out: MAP4K5 pIC50 (converted)): 110 nM; MST3 pIC50 (MST3; [1]): > 7; IC50 (MST3; radiometric filter binding panel, read-out: MST3 pIC50 (converted)): 112 nM; inhibition at 1 µM (MARK1; at 1 μM, radiometric filter binding assay, Dundee, read-out: MARK1 single point % inhibition): 44% |
| CN1C2CC1CN(c1ccc(Nc3ncc4ccn(CC5CCOCC5)c4n3)cc1)C2 [Compound 24] | 104 | 46 | 17 | 95 | 101 | 78 | 7 | 84 | 13 | 94 | IC50 (VEG-FR; radiometric filter binding panel, read-out: VEG-FR pIC50 (converted)): 295 nM; JAK3 pIC50 (JAK3; [1]): 7.6; IC50 (JAK3; radiometric filter binding panel, read-out: JAK3 pIC50 (converted)): 23.4 nM; SIK2 pIC50 (SIK2; [1]): 7.1 and 7.09 |
